Data: patent US5152784A, “Prosthetic devices coated with a polypeptide with type IV collagen activity” (Regents of the University of Minnesota, priority 1991, dated 1992)
Entries after “also recorded” stand apart in the source; their conditions may differ. One block for each substance: values may come before it.

What was measured:
[1] = molecular target: T1, peptide Hep-III (Homo sapiens, UniProt P02462); assay: Competition of 3H-heparin binding to coated peptide Hep-III by glycosaminoglycans; details: Hep-III coated from 500 μg/ml; 3H-heparin 50,000 cpm per well; unlabeled glycosaminoglycan in increasing amounts
T1 construct: residues 531-543 from the amino-terminus of the α1 chain of type IV collagen; The single letter amino acid code for this polypeptide is GEFYFDLRLKGDK; made in house; host or cells: chemical solid-phase (Merrifield) peptide synthesis
Experimental: To check the specificity of the interaction between heparin and peptide Hep-III or whether the heparin structure was also critical to this interaction, heparin along with other sulfated glucosaminoglycans, dextran and chondroitin sulfate were used in competition experiments. A standard amount of […] of a solution containing 500 μg/ml of peptide Hep-III was coated on 96-well plates as described above. Wells were treated for two hours with 2 mg/ml BSA in wash buffer. Then, a final volume of 50 μl was added to each well, containing a standard amount of ^3 H-heparin (50,000 cpm per well) and various amounts of non-radioactive heparin, dextran or chondroitin sulfate. After incubating for two hours at 37° C., the wells were washed and radioactivity was counted as described above in Example 1.

[2] = test system: endothelial cells; assay: Inhibition of 125I-Hep-III binding to endothelial cell surface by excess unlabeled peptide; set-up: species or system bovine; details: unlabeled peptide up to 500-fold excess; 15 min, 4° C.
Experimental: (§1) Melanoma and endothelial cells were grown in culture as discussed in Examples 4, 5, 6, and 7A (supra). On the day of the experiment, the cells were harvested by trypsinization (supra) and were co-incubated with 50 μl of peptide Hep-III. 50 μl a constant amount of ^125 I-labeled peptide Hep-III was mixed with increasing concentrations of unlabeled peptide Hep-III or a control peptide (maximal excess of unlabeled peptide: 500-fold over radiolabeled Hep-III). 50 μl of each concentration of unlabeled peptide which was mixed with radiolabeled Hep-III were then added to cells in suspension (5,000 cells per concentration of peptide). The cells were incubated with the mixture of unlabeled-radiolabeled peptide for 15 min. at 4° C. and they were then pelleted. The cells were subsequently washed and bound radioactivity was quantitated as described in Example 7A. […] These experiments provide confirmation that a specific interaction occurs between melanoma and endothelial-cell surfaces and peptide Hep-III.

[3] = test system: Bovine aortic endothelial cells; assay: Direct adhesion of endothelial cells to peptide-coated plastic; assay type: cell-based; details: coated at increasing concentrations; 120 min, 37° C.
Experimental: Bovine aortic endothelial cells were isolated according to the following protocol. Aortas were obtained from a local slaughterhouse, washed in cold phosphate buffered saline (PBS) (136 mM NaCl, 2.6 mM KCl, 15.2 mM Na2 HPO4, pH 7.2) and processed within 2 hours. Crude collagenase (CLS III, 125-145 units per mg dry weight, Cooper Biomedical) was used at 2 mg/ml in Dulbecco's modified Eagle's medium (DMEM) (GIBCO). The vessel was clamped at the distal end, filled with the collagenase-PBS solution and digestion was carried out for 10 minutes. The lumenal contents were harvested, followed by the addition of fresh collagenase for two additional 10-minute periods. The enzyme-cell suspensions were added to an equal volume of DMEM containing 10% fetal bovine serum (FBS) to inhibit the enzyme and spun in a centrifuge at 400×g for 10 minutes. The resulting cell pellet was resuspended in DMEM containing 10% FBS, 100 units/ml of penicillin G, 100 μg/ml of streptomycin and 100 μg/ml of crude fibroblast growth factor. Cells are in 75 cm^2 flasks in a humidified 5% CO2 atmosphere at 37° C. Cultures were fed twice a week with the same medium and cells were used in assays when approximately 75% confluent. The cells were labeled for 24 hours prior to use with a mixture of ^35 S-labeled amino acids (3 mCi). […]

[4] = test system: melanoma cell line (M4); assay: Inhibition of melanoma cell adhesion to type IV collagen-coated wells by peptide in solution; assay type: cell-based, murine; details: cells coincubated 20 min with peptide in solution, then 20 min on collagen-coated wells
Experimental: Cells were grown, labeled and harvested as described in Example 4, but after detachment and washing they were coincubated for 20 min. in the presence of various concentrations of peptide Hep-III in solution. They were then applied for another 20 min. on type IV collagen-coated plastic wells. At the end of the incubation the same treatment described in Example 4 was used.

[5] = test system: endothelial cells; assay: Direct binding of 125I-labeled peptide Hep-III to endothelial cell surface; set-up: species or system bovine; details: about 5,000 cells; 15 min, 4° C.; increasing peptide concentrations
Experimental: (§2) Endothelial and melanoma cells were grown in culture as described in Examples 4, 5, and 6 (supra). Cells used for this type of experiment were not labeled with radioactivity. Unlabeled cells were harvested by trypsinization (supra) on the day of the experiment. About 5,000 cells were mixed with 50 μl of a given concentration of peptide Hep-III in solution. Increasing concentrations of peptide Hep-III were used. The cells were incubated with the iodinated peptide for 15 min. at 4° C. and they were then pelleted by centrifugation. The cells were then resuspended and washed 3 times with DMEM containing 2 mg/ml BSA and 50 mM Hepes. Following the washes, the cells were pelleted for a final time in plastic tubes, the supernatant was decanted and the radioactivity of the pellet was quantitated in a Beckman scintillation counter. The binding of peptide Hep-III to endothelial cells is saturable (FIG. 10B)--an indication of specificity. […] These experiments indicate that peptide Hep-III specificity interacts with the surfaces of both endothelial cells and melanoma.

[6] = test system: melanoma cells; assay: Direct binding of 125I-labeled peptide Hep-III to melanoma cell surface; set-up: species or system murine; details: about 5,000 cells; 15 min, 4° C.; increasing peptide concentrations
Experimental: as §2

[7] = test system: melanoma cells; assay: Inhibition of 125I-Hep-III binding to melanoma cell surface by excess unlabeled peptide; set-up: species or system murine; details: unlabeled peptide up to 500-fold excess; 15 min, 4° C.
Experimental: as §1

[8] = test system: K-1735-M4 melanoma cells; assay: Adhesion of melanoma cells to peptide-coated wells; assay type: cell-based, murine; details: 120 minutes, 37° C.
From the text: Highly metastatic murmine melanoma cells, K-1735-M4 were originally provided by Dr. I. J. Fidler of Anderson Hospital, University of Texas Health Sciences Center, Houston, Tex. When the cells were received, a large number of early passage cells were propagated and frozen in liquid nitrogen. The tumor cells are usually cultured in vitro for no longer than six weeks. Following this period, the cells are discarded and new cells withdrawn from storage for use in further in vitro or in vivo experiments. This precaution is taken to minimize phenotypic drift that can occur as a result of continuous in vitro passage. The cells were cultured in Dulbecco's Modified Eagle's Medium containing 5% heat inactivated fetal calf serum. The cultures were grown in 37° C. incubators with a humidified atmosphere containing 5% CO2. Cells were subcultured twice weekly by releasing cells gently from the flask, using 0.05% trypsin and 1 mM EDTA.
Cultures of cells which were 60-80% confluent were metabolically labeled for 24 hours with the addition of 3 mCi/ml of ^3 H-td (tritiated thymidine). On the day of the assay, the cells were harvested by trypsinization, the trypsin was inhibited by the addition of serum, and the cells were washed free of this mixture and resuspended in DMEM buffered with HEPES at pH 7.2. […] The solubilized cells were then quantitated using a liquid scintillation counter. […]

[9] = Heparin binding to plastic plates coated with peptide
Experimental: The ability of the synthesized peptide Hep-III to interact with heparin when coated on 96-well plastic plates was evaluated. Stock solutions of peptide Hep-III at a concentration of 500 μg/ml were prepared in phosphate-buffered saline containing 0.02% sodium azide. Fifty μl from each concentration was coated on the 96-well plates and left to dry overnight at 28° C. Then, wells were treated for two hours with […] of 2 mg/ml BSA and 6 mM phosphate, 10 mM NaCl, 68 μM CaCl2, pH 6.8 (wash buffer) in order to minimize non-specific binding. Next 50 μl of ^3 H-heparin (10 μg/ml) was added at increasing concentrations (0 to 1400 ng/well) for two hours at 37° C. The wells were then washed three times with wash buffer containing 0.05% Triton X-100 and finally they were incubated for thirty minutes at 60° C. with 200 μl of 0.5N NaOH and 1% SDS. The amount of ^3 H-heparin bound at each concentration was quantitated with a Beckman LS-3801 liquid scintillation counter. […] Comparison with data obtained using exactly the same methodology indicate that peptide Hep-III is at least 10 times stronger than peptide Hep-I (TS-2 in U.S. Pat. No. 4,876,332) (see FIG. 5B) and about 100 times stronger than type IV collagen, when used in the same coating concentrations.

[10] = molecular target: T2, type IV collagen (Homo sapiens, UniProt P02462+P08572); assay: Inhibition of 3H-heparin binding to type IV collagen coated on plastic by peptide in solution; details: peptide in solution 0.5 mg/ml to 5 μg/ml; 3H-heparin 500 ng per well; type IV collagen coated at 60 μg/ml
T2 construct: intact, native type IV collagen coated on plastic
T2 sequence (P02462 173-1669): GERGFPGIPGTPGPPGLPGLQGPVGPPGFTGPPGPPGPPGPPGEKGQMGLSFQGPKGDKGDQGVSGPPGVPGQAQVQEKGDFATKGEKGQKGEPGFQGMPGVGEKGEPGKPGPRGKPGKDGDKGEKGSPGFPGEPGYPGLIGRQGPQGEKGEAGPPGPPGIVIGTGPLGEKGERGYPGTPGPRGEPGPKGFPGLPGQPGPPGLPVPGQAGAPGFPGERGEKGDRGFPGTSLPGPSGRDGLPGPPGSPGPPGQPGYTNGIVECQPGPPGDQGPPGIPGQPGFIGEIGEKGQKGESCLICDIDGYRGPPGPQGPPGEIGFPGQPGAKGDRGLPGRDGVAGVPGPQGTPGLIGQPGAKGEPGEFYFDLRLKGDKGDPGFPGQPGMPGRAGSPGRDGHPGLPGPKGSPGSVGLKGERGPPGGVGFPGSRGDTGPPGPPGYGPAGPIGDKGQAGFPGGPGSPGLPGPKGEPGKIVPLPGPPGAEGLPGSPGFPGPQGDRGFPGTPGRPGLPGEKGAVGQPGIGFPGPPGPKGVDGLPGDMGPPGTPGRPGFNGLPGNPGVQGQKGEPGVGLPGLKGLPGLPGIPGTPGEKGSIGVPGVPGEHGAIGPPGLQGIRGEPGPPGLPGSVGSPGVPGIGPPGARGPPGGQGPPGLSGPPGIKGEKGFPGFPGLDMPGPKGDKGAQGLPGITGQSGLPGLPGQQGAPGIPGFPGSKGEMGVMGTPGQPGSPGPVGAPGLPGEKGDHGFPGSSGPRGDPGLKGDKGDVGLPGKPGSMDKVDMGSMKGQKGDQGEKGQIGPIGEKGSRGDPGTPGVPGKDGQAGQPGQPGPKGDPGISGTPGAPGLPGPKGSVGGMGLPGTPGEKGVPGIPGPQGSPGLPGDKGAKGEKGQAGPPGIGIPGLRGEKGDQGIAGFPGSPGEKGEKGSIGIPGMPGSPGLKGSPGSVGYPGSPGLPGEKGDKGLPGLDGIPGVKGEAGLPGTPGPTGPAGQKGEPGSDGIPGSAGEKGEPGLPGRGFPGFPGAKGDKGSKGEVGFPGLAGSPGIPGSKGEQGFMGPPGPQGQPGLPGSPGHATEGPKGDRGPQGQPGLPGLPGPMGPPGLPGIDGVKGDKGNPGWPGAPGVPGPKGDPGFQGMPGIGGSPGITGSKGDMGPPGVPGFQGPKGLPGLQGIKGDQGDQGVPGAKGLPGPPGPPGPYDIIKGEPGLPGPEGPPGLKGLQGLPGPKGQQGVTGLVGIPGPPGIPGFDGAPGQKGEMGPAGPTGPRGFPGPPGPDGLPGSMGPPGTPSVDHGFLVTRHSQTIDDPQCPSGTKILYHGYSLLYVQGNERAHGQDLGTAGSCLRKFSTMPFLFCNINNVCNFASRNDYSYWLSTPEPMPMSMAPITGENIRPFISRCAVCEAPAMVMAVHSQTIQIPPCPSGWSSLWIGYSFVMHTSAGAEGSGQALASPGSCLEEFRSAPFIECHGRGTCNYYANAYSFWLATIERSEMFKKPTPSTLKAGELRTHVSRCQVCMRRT
T2 sequence (P08572 184-1712): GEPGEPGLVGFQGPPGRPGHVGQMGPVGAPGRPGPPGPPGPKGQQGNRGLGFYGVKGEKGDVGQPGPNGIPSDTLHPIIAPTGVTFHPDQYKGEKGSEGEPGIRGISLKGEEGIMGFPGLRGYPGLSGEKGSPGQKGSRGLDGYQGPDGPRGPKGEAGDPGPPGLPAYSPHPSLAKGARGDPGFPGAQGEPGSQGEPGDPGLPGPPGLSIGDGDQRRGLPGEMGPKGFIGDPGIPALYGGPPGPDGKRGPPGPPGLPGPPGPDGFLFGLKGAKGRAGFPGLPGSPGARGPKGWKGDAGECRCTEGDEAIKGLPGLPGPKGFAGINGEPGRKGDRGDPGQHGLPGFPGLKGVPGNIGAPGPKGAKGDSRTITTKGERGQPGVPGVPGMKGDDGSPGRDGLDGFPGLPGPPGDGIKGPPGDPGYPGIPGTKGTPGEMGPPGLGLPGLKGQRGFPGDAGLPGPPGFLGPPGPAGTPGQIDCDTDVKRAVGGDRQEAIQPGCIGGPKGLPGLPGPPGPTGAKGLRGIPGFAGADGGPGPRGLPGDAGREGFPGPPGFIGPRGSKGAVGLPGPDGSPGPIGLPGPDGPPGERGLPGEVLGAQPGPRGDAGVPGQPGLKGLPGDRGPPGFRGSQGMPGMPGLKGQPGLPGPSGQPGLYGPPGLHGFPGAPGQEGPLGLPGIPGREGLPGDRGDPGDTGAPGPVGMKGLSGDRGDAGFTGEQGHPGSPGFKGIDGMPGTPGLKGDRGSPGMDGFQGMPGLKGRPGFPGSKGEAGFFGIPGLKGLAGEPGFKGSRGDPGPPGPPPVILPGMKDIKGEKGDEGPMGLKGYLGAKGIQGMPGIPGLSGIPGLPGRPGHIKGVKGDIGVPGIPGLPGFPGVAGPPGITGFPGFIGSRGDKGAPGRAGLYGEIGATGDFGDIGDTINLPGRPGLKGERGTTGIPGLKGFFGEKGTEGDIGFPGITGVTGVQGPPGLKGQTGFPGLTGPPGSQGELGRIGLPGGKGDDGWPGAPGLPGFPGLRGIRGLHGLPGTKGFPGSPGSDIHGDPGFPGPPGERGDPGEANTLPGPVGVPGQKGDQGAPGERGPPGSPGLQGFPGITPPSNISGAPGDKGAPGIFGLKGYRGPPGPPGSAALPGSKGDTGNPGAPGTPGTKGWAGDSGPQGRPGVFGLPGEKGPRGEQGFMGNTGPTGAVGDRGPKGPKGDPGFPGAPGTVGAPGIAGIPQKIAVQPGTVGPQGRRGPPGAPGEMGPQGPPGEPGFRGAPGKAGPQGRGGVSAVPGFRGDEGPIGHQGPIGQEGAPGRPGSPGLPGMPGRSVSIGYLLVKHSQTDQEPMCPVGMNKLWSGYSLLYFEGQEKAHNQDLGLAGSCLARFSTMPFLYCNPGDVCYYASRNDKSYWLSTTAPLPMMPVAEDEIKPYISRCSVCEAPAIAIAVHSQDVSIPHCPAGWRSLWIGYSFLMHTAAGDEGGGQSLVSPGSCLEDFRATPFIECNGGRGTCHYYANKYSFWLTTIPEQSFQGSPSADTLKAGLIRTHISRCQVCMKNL
Experimental: Peptide Hep-III in solution (and not absorbed to plastic), was screened for the ability to inhibit the binding of heparin to intact, native type IV collagen coated on plastic. This experimental approach avoids problems due to differential coating of peptides in heparin binding assays. Type IV collagen at 60 μg/ml in PBS was coated on 96-well plates, using 50 μl per well and dried overnight at 28° C. The wells were then treated for two hours with 2 mg/ml BSA in wash buffer (described above in Example 1). Peptide Hep-III at various dilutions ranging from 0.5 mg/ml to 5 μg/ml in PBS and CHAPS (cholamido-propyl-dimethyl-ammoniopropane-sulfonate) (a detergent used to avoid non-specific sticking) was co-incubated with a standard amount of ^3 H-heparin (500 ng per well […]) for two hours at 37° C. and the mixture was then transferred to the collagen coated plate (50 μl) and allowed to incubate for another two hours at 37° C. The wells were then washed and radioactivity was counted as described above.

[11] = same methodology, same coating concentrations

Substance: chondroitin sulfate
competition for the binding of tritiated heparin to peptide Hep-III [1]: cannot mimic this effect except at extremely high concentrations

Substance: heparin
competition for the binding of tritiated heparin to peptide Hep-III [1]: able to compete for the binding of tritiated heparin to peptide Hep-III at very low concentrations

heparin binding strength relative to peptide Hep-I (TS-2) [9, 11]: at least 10 times
heparin binding strength relative to type IV collagen [9, 11]: about 100 times
Substance: gly-glu-phe-tyr-phe-asp-leu-arg-leu-lys-gly-asp-lys (GEFYFDLRLKGDK) [Hep-III, …; type IV collagen residues 531-543 from the amino-terminus of the α1 chain]
competition of radiolabeled Hep-III binding to endothelial cells by unlabeled peptide [2]: could efficiently compete
endothelial cell adhesion to coated substrate (in words) [3]: promotes substantial adhesion of endothelial cells even at very low plating concentrations
decrease of melanoma cell binding to type IV collagen-coated substrata [4]: dramatically decrease the binding of melanoma cells
binding of 125I-labeled peptide to endothelial cell surface [5]: saturable
binding of 125I-labeled peptide to melanoma cell surface [6]: with a tendency for saturation at the higher concentrations used
competition of radiolabeled Hep-III binding to melanoma cells by unlabeled peptide [7]: can be competed only by an excess of unlabeled peptide Hep-III
maximal melanoma cell adhesion ([8]; peptide coated at increasing concentrations): 70,000 dpm
melanoma cell adhesion ([8]; peptide concentration 0.5 μg/well): 80 % of input
binding of 3H-heparin to coated peptide ([9]; peptide coated on 96-well plastic plates, 3H-heparin 0 to 1400 ng/well, 2 h, 37° C.): extremely potent promoter of heparin-binding to synthetic substrates; also recorded: strong binding to heparin; also recorded: very potent binder of heparin
inhibition of heparin binding to type IV collagen [10]: strong inhibitor of heparin binding to type IV collagen

Substance: dextran
competition for the binding of tritiated heparin to peptide Hep-III [1]: substantially more dextran is needed to achieve similar levels of competition
